{
  "source": "patent US20250084043A1",
  "about": "“FORMULATION OF METAXALONE” (iCeutica Inc., priority 2013, published 2025)",
  "key": {"[1]": {"conditions": "cited from earlier work"}, "[2]": {"test": "Particle size distribution, Malvern Mastersizer 3000 laser particle size analyzer", "format": "physicochemical", "conditions": "aqueous dispersing medium", "procedure": "Submicron sized metaxalone drug particles were prepared by dry milling metaxalone drug substance (40%) together with lactose monohydrate and sodium lauryl sulfate in an attritor mill containing stainless steel grinding media. The total batch size was approximately 1 kg. Milled powder was discharged out the bottom of the mill and collected for analysis and further processing. […] Table 1, below, includes size data for the milled and unmilled metaxalone."}},
  "note": "Like-named read-outs stand apart in the source and are kept apart here.",
  "data": [
    {"compound": "Cc1cc(C)cc(OCC2CNC(=O)O2)c1", "note": "(stereo not shown) [Metaxalone]", "values": [
      {"measurement": "solubility", "setting": "[1]; 96% ethanol", "result": "soluble"},
      {"measurement": "solubility", "setting": "[1]; chloroform", "result": "freely soluble"},
      {"measurement": "solubility", "setting": "[1]; ether", "result": "practically insoluble"},
      {"measurement": "solubility", "setting": "[1]; methanol", "result": "soluble"},
      {"measurement": "solubility", "setting": "[1]; water", "result": "practically insoluble"},
      {"measurement": "D[4, 3]", "setting": "[2]", "result": 47.3, "unit": "μm"},
      {"measurement": "Dv10", "setting": "[2]", "result": 16.0, "unit": "μm"},
      {"measurement": "Dv50", "setting": "[2]", "result": 43.3, "unit": "μm"},
      {"measurement": "Dv90", "setting": "[2]", "result": 81.8, "unit": "μm"},
      {"measurement": "Specific Surface Area", "setting": "[2]", "result": 199.7, "unit": "m^2/kg"}
    ]}
  ]
}
